According to patent US9556145B2, “2-pyridyloxy-4-ester orexin receptor antagonists” (MERCK SHARP & DOHME CORP., priority 2012, dated 2017):

Experiments:
human orexin-2 receptor = human orexin-2 receptor (Homo sapiens (Human), UniProt O43614); assay: FLIPR Ca2+ Flux Assay, orexin-2 receptor; assay type: cell-based; conditions: CHO cells expressing the receptor; agonist 70 pM Ala-6,12 orexin-A; read-out: hOX2R FLIPR IC50
Description: The utility of the compounds in accordance with the present invention as orexin receptor OX1R and/or OX2R antagonists may be readily determined without undue experimentation by methodology well known in the art, including the “FLIPR Ca^2+ Flux Assay” (Okumura et al., Biochem. Biophys. Res. Comm. 280:976-981, 2001). In a typical experiment the OX1 and OX2 receptor antagonistic activity of the compounds of the present invention was determined in accordance with the following experimental method. For intracellular calcium measurements, Chinese hamster ovary (CHO) cells expressing the rat orexin-1 receptor or the human orexin-2 receptor, are grown in Iscove's modified DMEM containing 2 mM L-glutamine, […], 1% hypoxanthine-thymidine supplement, 100 U/ml penicillin, 100 µg/ml streptomycin and 10% heat-inactivated fetal calf serum (FCS). The cells are seeded at 20,000 cells/well into Becton-Dickinson black 384-well clear bottom sterile plates coated with poly-D-lysine. All reagents were from GIBCO-Invitrogen Corp. The seeded plates are incubated overnight at 37° C. and 5% CO2. Ala-6,12 human orexin-A as the agonist is prepared as a 1 mM stock solution in 1% bovine serum albumin (BSA) and diluted in assay buffer (HBSS containing 20 mM HEPES, 0.1% BSA and 2.5 mM probenecid, pH7.4) for use in the assay at a final concentration of 70 pM. Test compounds are prepared as 10 mM stock solution in DMSO, then diluted in 384-well plates, first in DMSO, then assay buffer. On the day of the assay, cells are washed 3 times with 100 μl assay buffer and then incubated for 60 min (37° C., 5% CO2) in 60 μl assay buffer containing 1 μM Fluo-4AM ester, 0.02% pluronic acid, and 1% BSA. The dye loading solution is then aspirated and cells are washed 3 times with 100 μl assay buffer. 30 μl of that same buffer is left in each well. Within the Fluorescent Imaging Plate Reader (FLIPR, Molecular Devices), test compounds are added to the plate in a volume of 25 μl, incubated for 5 min and finally 25 μl of agonist is added. Fluorescence is measured for each well at 1 second intervals for 5 minutes and the height of each fluorescence peak is compared to the height of the fluorescence peak induced by 70 pM Ala-6,12 orexin-A with buffer in place of antagonist. For each antagonist, IC50 value (the concentration of compound needed to inhibit 50% of the agonist response) is determined. Alternatively, compound potency can be assessed by a radioligand binding assay (described in Bergman et. al. Bioorg. Med. Chem. Lett. 2008, 18, 1425-1430) in which the inhibition constant (Ki) is determined in membranes prepared from CHO cells expressing either the OX1 or OX2 receptor. The intrinsic orexin receptor antagonist activity of a compound which may be used in the present invention may be determined by these assays.

hOX1R = hOX1R (Homo sapiens, UniProt O43613); assay: FLIPR Ca2+ Flux Assay, orexin-1 receptor; assay type: cell-based; conditions: CHO cells expressing the receptor; agonist 70 pM Ala-6,12 orexin-A

Chain of human orexin-2 receptor (O43614 whole entry): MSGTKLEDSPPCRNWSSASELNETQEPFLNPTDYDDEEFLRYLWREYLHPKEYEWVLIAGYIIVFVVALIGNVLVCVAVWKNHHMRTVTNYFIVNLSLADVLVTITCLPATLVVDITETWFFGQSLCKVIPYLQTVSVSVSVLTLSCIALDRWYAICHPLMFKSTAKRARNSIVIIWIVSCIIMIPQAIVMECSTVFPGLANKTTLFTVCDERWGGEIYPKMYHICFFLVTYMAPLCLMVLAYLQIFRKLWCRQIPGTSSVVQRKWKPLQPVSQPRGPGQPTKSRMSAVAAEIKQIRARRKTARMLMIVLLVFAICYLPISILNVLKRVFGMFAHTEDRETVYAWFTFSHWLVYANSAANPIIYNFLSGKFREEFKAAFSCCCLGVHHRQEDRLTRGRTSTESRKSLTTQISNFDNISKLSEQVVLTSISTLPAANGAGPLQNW

SMILES | IC50 (human orexin-2 receptor) [nM] | IC50 (hOX1R) [nM]
COC(=O)c1cc(O[C@@H]2CC[C@@H](C)N(C(=O)c3ccccc3-n3nccn3)C2)ncc1Br [Example 4, methyl 5-bromo-2-{[(3R,6R)-6-methyl-1-{[2-(2H-1,2,3-triazol-2-yl)phenyl]carbon-yl}piperidin-3-yl]oxy}pyridine-4-carboxylate] | 60 | 28.9
COC(=O)c1cc(O[C@@H]2CC[C@@H](C)N(C(=O)c3ccccc3-n3nccn3)C2)ncc1C [Example 11, Methyl 5-methyl-2-{[(3R,6R)-6-methyl-1-{[2-(2H-1,2,3-triazol-2-yl)phenyl]carbonyl}piperidin-3-yl]oxy}pyridine-4-carboxylate] | 11 | 31
COC(=O)c1ccnc(O[C@@H]2CC[C@@H](C)N(C(=O)c3ccccc3-n3nccn3)C2)c1C(=O)OC [Example 6, dimethyl 2-{[(3R,6R)-6-methyl-1-{[2-(2H-1,2,3-triazol-2-yl)phenyl]-carbonyl}-piperidin-3-yl]oxy}pyridine-3,4-dicarboxylate] | 30.8 | 526
COC(=O)c1ccnc(O[C@@H]2CC[C@@H](C)N(C(=O)c3ccccc3-n3nccn3)C2)c1Cl [Example 5, Methyl 3-chloro-2-{[(3R,6R)-6-methyl-1-{[2-(2H-1,2,3-triazol-2-yl)phenyl]carbonyl}piperidin-3-yl]oxy}pyridine-4-carboxylate] | 11 | 953
COC(=O)c1cc(O[C@@H]2CC[C@@H](C)N(C(=O)c3ccccc3-n3nccn3)C2)ncc1OC [Example 10, Methyl 5-methoxy-2-{[(3R,6R)-6-methyl-1-{[2-(2H-1,2,3-triazol-2-yl)phenyl]carbonyl}piperidin-3-yl]oxy}pyridine-4-carboxylate] | 96 | 597
COC(=O)c1ccnc(O[C@@H]2CC[C@@H](C)N(C(=O)c3ccccc3-n3nccn3)C2)c1 [Example 1, Methyl 2-{[(3R,6R)-6-methyl-1-{[2-(2H-1,2,3-triazol-2-yl)phenyl]carbonyl}piperidin-3-yl]oxy}pyridine-4-carboxylate] | 26 | 1400
COC(=O)c1cc(O[C@@H]2CC[C@@H](C)N(C(=O)c3ccccc3-n3nccn3)C2)ncc1C(F)(F)F [Example 3, methyl 2-{[(3R,6R)-6-methyl-1-{[2-(2H-1,2,3-triazol-2-yl)phenyl]-carbonyl}piperidin-3-yl]oxy}-5-(trifluoro-methyl)pyridine-4-carboxylate] | 57 | 28
COC(=O)c1cc(C)nc(O[C@@H]2CC[C@@H](C)N(C(=O)c3ccccc3-n3nccn3)C2)c1 [Example 7, methyl 2-methyl-6-{[(3R,6R)-6-methyl-1-{[2-(2H-1,2,3-triazol-2-yl)phenyl]carbonyl}piperidin-3-yl]oxy}pyridine-4-carboxylate] | 82.6 | 1470
COC(=O)c1ccnc(O[C@@H]2CC[C@@H](C)N(C(=O)c3ccccc3-n3nccn3)C2)c1F [Example 8, methyl 3-fluoro-2-{[(3R,6R)-6-methyl-1-{[2-(2H-1,2,3-triazol-2-yl)phenyl]carbonyl}piperidin-3-yl]oxy}pyridine-4-carboxylate] | 24.9 | 1690
COC(=O)c1ccnc(O[C@@H]2CC[C@@H](C)N(C(=O)c3ccc(OC)nc3-n3nccn3)C2)c1 [Example 9, methyl 2-{[(3R,6R)-1-{[6-methoxy-2-(2H-1,2,3-triazol-2-yl)pyridin-3-yl]carbonyl}-6-methylpiperidin-3-yl]oxy}pyridine-4-carboxylate] | 406 | 10000
COC(=O)c1ccnc(O[C@@H]2CC[C@@H](C)N(C(=O)c3ccc(OC)nc3-c3ncccn3)C2)c1 [Example 12, Methyl 2-({(3R,6R)-1-[(6-methoxy-2-pyrimidin-2-ylpyridin-3-yl)carbonyl]-6-methylpiperidin-3-yl}oxy)pyridine-4-carboxylate] | 2110 | 10000
